Values belong to the molecule of their own block, whether it stands above or below them. Calls of active or inactive are those of the source. No cut-off for these calls is given here.
Tests used:
Mus musculus [1] = test: Downregulation of Ki67 expression in Balb/c mouse xenografted with human MDA-MB-231 cells at 5 mg/kg, ip administered 3 times per week for 29 days by DAB staining based immunohistochemical analysis; format: functional, organism-based
Mus musculus [2] = test: Downregulation of AXL expression in Balb/c mouse xenografted with human MDA-MB-231 cells at 5 mg/kg, ip administered 3 times per week for 29 days by DAB staining based immunohistochemical analysis; format: functional, organism-based
Mus musculus [3] = test: Downregulation of phosphorylated STAT1 expression at ser727 residue in Balb/c mouse xenografted with human MDA-MB-231 cells at 5 mg/kg, ip administered 3 times per week for 29 days by DAB staining based immunohistochemical analysis; format: functional, organism-based
[4] = Toxicity in Balb/c mouse xenografted with human MDA-MB-231 cells assessed as reduction in body weight at 5 mg/kg, ip ip administered 3 times per week and measured 2 times per week for 29 days; format: organism-based; details: in vivo, 696 h
MDA-MB-231 [5] = test: Cell cycle arrest in human MDA-MB-231 cells assessed as increase in accumulation of cells at sub-G1 phase at 2.5 to 10 uM by PI/RNase staining based flow cytometric analysis; format: functional
[6] = target: Cyclin-dependent kinase 8 (Homo sapiens) (UniProt P49336); test: Inhibition of CDK8 in human HCC38 cells assessed as reduction in S6 phosphorylation after 24 hrs by Western blot analysis; format: cell-based
Chain of Cyclin-dependent kinase 8 (Homo sapiens) (P49336 whole entry): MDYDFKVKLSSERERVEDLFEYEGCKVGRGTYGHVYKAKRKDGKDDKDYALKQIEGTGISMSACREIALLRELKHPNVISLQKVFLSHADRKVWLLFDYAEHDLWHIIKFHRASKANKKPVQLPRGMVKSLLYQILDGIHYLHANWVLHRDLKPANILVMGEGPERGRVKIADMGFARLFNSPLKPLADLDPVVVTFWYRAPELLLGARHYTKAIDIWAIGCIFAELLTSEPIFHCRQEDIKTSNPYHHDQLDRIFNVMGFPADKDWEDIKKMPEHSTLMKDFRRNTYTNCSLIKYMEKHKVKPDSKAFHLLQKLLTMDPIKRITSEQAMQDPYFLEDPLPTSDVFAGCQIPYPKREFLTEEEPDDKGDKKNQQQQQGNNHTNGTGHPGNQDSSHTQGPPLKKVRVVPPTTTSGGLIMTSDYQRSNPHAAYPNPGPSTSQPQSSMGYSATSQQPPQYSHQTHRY

HCC38 [7] = test: Inhibition of colony formation in human HCC38 cells assessed as reduction in colony size at 20 uM after 14 days by crystal violet staining based light microscopic analysis; format: functional, cell-based
[8] = target: Cyclin-dependent kinase 8 (Homo sapiens) (UniProt P49336); test: Inhibition of CDK8 in human MDA-MB-231 cells assessed as reduction in STAT1 phosphorylation at Ser727 residue after 24 hrs by Western blot analysis; format: cell-based
HCC38 [9] = test: Inhibition of colony formation in human HCC38 cells assessed as reduction in number of colonies at 2.5 to 20 uM after 14 days by crystal violet staining based light microscopic analysis; format: functional, cell-based
HCC38 [10] = test: Antimigratory activity against human HCC38 cells at 1.25 to 5 uM after 24 hrs by scratch wound healing based microscopic analysis; format: functional, cell-based
MDA-MB-231 [11] = test: Antiproliferative activity against human MDA-MB-231 cells assessed as reduction in cell viability after 72 hrs by SRB assay; format: functional, cell-based
Mus musculus [12] = test: Downregulation of phosphorylated STAT1 expression at ser727 residue in Balb/c mouse xenografted with human MDA-MB-231 cells at 5 to 20 mg/kg, ip administered 3 times per week for 29 days by DAB staining based immunohistochemical analysis; format: functional, organism-based
[13] = target: Cyclin-dependent kinase 8 (Homo sapiens) (UniProt P49336); test: Inhibition of CDK8 in human HCC38 cells assessed as increase in P27 expression at 10 uM after 24 hrs by RT-PCR analysis; format: cell-based
[14] = target: Cyclin-dependent kinase 8 (Homo sapiens) (UniProt P49336); test: Inhibition of CDK8 in human HCC38 cells assessed as increase in P27 expression after 48 hrs by Western blot analysis; format: cell-based
[15] = target: Cyclin-dependent kinase 8 (Homo sapiens) (UniProt P49336); test: Inhibition of CDK8 in human MDA-MB-231 cells assessed as reduction in HK1 expression at 10 uM after 24 hrs by RT-PCR analysis; format: cell-based
[16] = target: Cyclin-dependent kinase 8 (Homo sapiens) (UniProt P49336); test: Inhibition of CDK8 in human HCC38 cells assessed as reduction in STAT3 phosphorylation after 24 hrs by Western blot analysis; format: cell-based
MDA-MB-231 [17] = test: Antimigratory activity against human MDA-MB-231 cells at 1.25 to 5 uM after 24 hrs by scratch wound healing based microscopic analysis; format: functional, cell-based
MDA-MB-231 [18] = test: Inhibition of epithelial-mesenchymal transition in human MDA-MB-231 cells increase in E-cadherin expression at 5 uM after 24 hrs by RT-PCR analysis; format: functional, cell-based
MDA-MB-231 [19] = test: Inhibition of epithelial-mesenchymal transition in human MDA-MB-231 cells reduction in vimentin protein expression after 24 hrs by Western blot analysis; format: functional, cell-based
HCC38 [20] = test: Induction of apoptosis in human HCC38 cells at 2.5 to 20 uM after 48 hrs by Annexin-V/PI staining based flow cytometric analysis; format: functional, cell-based
MDA-MB-231 [21] = test: Inhibition of epithelial-mesenchymal transition in human MDA-MB-231 cells reduction in beta catenin protein expression after 24 hrs by Western blot analysis; format: functional, cell-based
MDA-MB-231 [22] = test: Antitumour activity against human MDA-MB-231 cells xenografted in Balb/c mouse assessed as reduction in tumour volume at 5 mg/kg, ip administered 3 times per week and measured 2 times per week for 29 days relative to control; format: functional; parameters: scale not given: the % may be the effect or the level left
[23] = target: Cyclin-dependent kinase 8 (Homo sapiens) (UniProt P49336); test: Inhibition of CDK8 in human HCC38 cells assessed as reduction in STAT1 phosphorylation at Ser727 residue after 24 hrs by Western blot analysis; format: cell-based
MDA-MB-231 [24] = test: Inhibition of colony formation in human MDA-MB-231 cells assessed as reduction in colony size at 2.5 to 20 uM after 14 days by crystal violet staining based light microscopic analysis; format: functional, cell-based
[25] = target: Cyclin-dependent kinase 8 (Homo sapiens) (UniProt P49336); test: Inhibition of CDK8 in human MDA-MB-231 cells assessed as reduction in S6 phosphorylation after 24 hrs by Western blot analysis; format: cell-based
HCC38 [26] = test: Induction of apoptosis in human HCC38 cells assessed as increase in PARP cleavage after 48 hrs by Western blot analysis; format: functional, cell-based
Mus musculus [27] = test: Downregulation of AXL expression in Balb/c mouse xenografted with human MDA-MB-231 cells at 5 to 20 mg/kg, ip administered 3 times per week for 29 days by DAB staining based immunohistochemical analysis; format: functional, organism-based
[28] = target: Cyclin-dependent kinase 8 (Homo sapiens) (UniProt P49336); test: Inhibition of CDK8 in human HCC38 cells assessed as reduction in skp2 expression after 48 hrs by Western blot analysis; format: cell-based
MDA-MB-231 [29] = test: Antitumour activity against human MDA-MB-231 cells xenografted in Balb/c mouse assessed as reduction in tumour volume at 20 mg/kg, ip administered 3 times per week and measured 2 times per week for 29 days relative to control; format: functional; parameters: scale not given: the % may be the effect or the level left
MDA-MB-231 [30] = test: Induction of apoptosis in human MDA-MB-231 cells at 2.5 to 20 uM after 48 hrs by Annexin-V/PI staining based flow cytometric analysis; format: functional, cell-based
HCC38 [31] = test: Inhibition of epithelial-mesenchymal transition in human HCC38 cells reduction in vimentin protein expression after 24 hrs by Western blot analysis; format: functional, cell-based
[32] = target: Cyclin-dependent kinase 8 (Homo sapiens) (UniProt P49336); test: Inhibition of CDK8 in human MDA-MB-231 cells assessed as reduction in skp2 expression after 48 hrs by Western blot analysis; format: cell-based
[33] = target: Cyclin-dependent kinase 8 (Homo sapiens) (UniProt P49336); test: Inhibition of CDK8 in human HCC38 cells assessed as reduction in HK1 expression at 10 uM after 24 hrs by RT-PCR analysis; format: cell-based
Mus musculus [34] = test: Downregulation of Ki67 expression in Balb/c mouse xenografted with human MDA-MB-231 cells at 5 to 20 mg/kg, ip administered 3 times per week for 29 days by DAB staining based immunohistochemical analysis; format: functional, organism-based
[35] = target: Cyclin-dependent kinase 8 (Homo sapiens) (UniProt P49336); test: Inhibition of CDK8 in human HCC38 cells assessed as reduction in AXL expression after 24 hrs by Western blot analysis; format: cell-based
MDA-MB-231 [36] = test: Inhibition of epithelial-mesenchymal transition in human MDA-MB-231 cells reduction in N-cadherin expression at 5 uM after 24 hrs by RT-PCR analysis; format: functional, cell-based
HCC38 [37] = test: Cell cycle arrest in human HCC38 cells assessed as increase in accumulation of cells at sub-G1 phase at 2.5 to 10 uM by PI/RNase staining based flow cytometric analysis; format: functional
[38] = target: Cyclin-dependent kinase 8 (Homo sapiens) (UniProt P49336); test: Inhibition of CDK8 in human MDA-MB-231 cells assessed as reduction in AXL expression after 24 hrs by Western blot analysis; format: cell-based
HCC38 [39] = test: Inhibition of epithelial-mesenchymal transition in human HCC38 cells reduction in BMP4 protein expression after 24 hrs by Western blot analysis; format: functional, cell-based
[40] = Toxicity in Balb/c mouse xenografted with human MDA-MB-231 cells assessed as effect on body weight at 5 to 20 mg/kg, ip ip administered 3 times per week and measured 2 times per week for 29 days; format: organism-based; details: in vivo, 696 h
MDA-MB-231 [41] = test: Induction of apoptosis in human MDA-MB-231 cells assessed as increase in PARP cleavage after 48 hrs by Western blot analysis; format: functional, cell-based
HCC38 [42] = test: Inhibition of epithelial-mesenchymal transition in human HCC38 cells reduction in N-cadherin expression at 5 uM after 24 hrs by RT-PCR analysis; format: functional, cell-based
[43] = target: Cyclin-dependent kinase 8 (Homo sapiens) (UniProt P49336); test: Inhibition of CDK8 in human MDA-MB-231 cells assessed as increase in P27 expression after 48 hrs by Western blot analysis; format: cell-based
HCC38 [44] = test: Inhibition of epithelial-mesenchymal transition in human HCC38 cells reduction in beta catenin protein expression after 24 hrs by Western blot analysis; format: functional, cell-based
[45] = target: Cyclin-dependent kinase 8 (Homo sapiens) (UniProt P49336); test: Inhibition of CDK8 in human MDA-MB-231 cells assessed as increase in P27 expression at 10 uM after 24 hrs by RT-PCR analysis; format: cell-based
MDA-MB-231 [46] = test: Inhibition of epithelial-mesenchymal transition in human MDA-MB-231 cells reduction in BMP4 protein expression after 24 hrs by Western blot analysis; format: functional, cell-based
MDA-MB-231 [47] = test: Inhibition of colony formation in human MDA-MB-231 cells assessed as reduction in number of colonies at 2.5 to 20 uM after 14 days by crystal violet staining based light microscopic analysis; format: functional, cell-based
HCC38 [48] = test: Inhibition of epithelial-mesenchymal transition in human HCC38 cells increase in E-cadherin expression at 5 uM after 24 hrs by RT-PCR analysis; format: functional, cell-based
HCC38 [49] = test: Antiproliferative activity against human HCC38 cells assessed as reduction in cell viability after 72 hrs by SRB assay; format: functional, cell-based
[50] = target: Cyclin-dependent kinase 8 (Homo sapiens) (UniProt P49336); test: Inhibition of CDK8 in human MDA-MB-231 cells assessed as reduction in STAT3 phosphorylation after 24 hrs by Western blot analysis; format: cell-based

Structure (SMILES): CC(=O)O[C@H]1C(=O)[C@@]2(C)[C@H]([C@H](OC(=O)c3ccccc3)[C@]3(O)C[C@H](OC(=O)[C@H](O)[C@@H](NC(=O)c4ccccc4)c4ccccc4)C(C)=C1C3(C)C)[C@]1(OC(C)=O)CO[C@@H]1C[C@@H]2O [PACLITAXEL]
Activity (Mus musculus [1]): Active
Activity (Mus musculus [2]): inactive
Activity (Mus musculus [3]): inactive
Activity [4]: Toxic

inhibition [6]: Dose-dependent effect
inhibition [8]: Dose-dependent effect
IC50 (MDA-MB-231 [11]; MDA-MB-231, 72 h): 9 µM
inhibition [13]: Active
inhibition [14]: Dose-dependent effect
inhibition [15]: Active
inhibition [16]: Dose-dependent effect
inhibition [23]: Dose-dependent effect
inhibition [25]: Dose-dependent effect
inhibition [28]: Dose-dependent effect
inhibition [32]: Dose-dependent effect
inhibition [33]: Active
inhibition [35]: Dose-dependent effect
inhibition [38]: Dose-dependent effect
inhibition [43]: Dose-dependent effect
inhibition [45]: Active
inhibition [50]: Dose-dependent effect
Structure (SMILES): COc1cc(/C=C/C(=O)OC[C@H]2O[C@H](O[C@]3(COC(=O)/C=C/c4ccc(O)cc4)O[C@H](COC(=O)/C=C/c4ccc(O)cc4)[C@@H](O)[C@@H]3OC(=O)/C=C/c3ccc(O)cc3)[C@H](O)[C@@H](O)[C@@H]2O)ccc1O [VANICOSIDE B]
Activity (MDA-MB-231 [5]): Active
inhibition (HCC38 [7]): Active
inhibition (HCC38 [9]): Active
Activity (HCC38 [10]): Active
Activity (MDA-MB-231 [11]): Dose-dependent effect
Activity (Mus musculus [12]): Active
Activity (MDA-MB-231 [17]): Active
inhibition (MDA-MB-231 [18]): Active
inhibition (MDA-MB-231 [19]): Dose-dependent effect
Activity (HCC38 [20]): Active
inhibition (MDA-MB-231 [21]): Dose-dependent effect
Activity (MDA-MB-231 [22]): 53.85%
inhibition (MDA-MB-231 [24]): Active
Activity (HCC38 [26]): Dose-dependent effect
Activity (Mus musculus [27]): Active
Activity (MDA-MB-231 [29]): 65.72%
Activity (MDA-MB-231 [30]): Active
inhibition (HCC38 [31]): Dose-dependent effect
Activity (Mus musculus [34]): Active
inhibition (MDA-MB-231 [36]): Active
Activity (HCC38 [37]): Active
inhibition (HCC38 [39]): Dose-dependent effect
Activity [40]: Non-Toxic
Activity (MDA-MB-231 [41]): Dose-dependent effect
inhibition (HCC38 [42]): Active
inhibition (HCC38 [44]): Dose-dependent effect
inhibition (MDA-MB-231 [46]): Dose-dependent effect
inhibition (MDA-MB-231 [47]): Active
inhibition (HCC38 [48]): Active
Activity (HCC38 [49]): Dose-dependent effect
